What is called IC50 is the point on the concentration scale where inhibition reaches its midpoint. Low values mean inhibition by little substance, high ones a need for much substance.

Here are results for 16 compounds from patent publication US8183271B2, “Tetrazole derivatives and their use for the treatment of cardiovascular diseases” (Bayer Intellectual Property GmbH, priority 2005, dated 2012).

The test system of one experiment is saphenous artery rings. The experiment is described as follows: Vasorelaxant effect in vitro (phenylephrine-contracted artery rings). The following applies: Oryctolagus cuniculus, rabbit saphenous artery rings, contraction induced by phenylephrine. Format: cell-based, Rabbits. The procedure: Rabbits are anesthetized and sacrificed by intravenous injection of thiopental sodium (about 50 mg/kg) and exsanguinated. The saphenous artery is removed and divided into rings 3 mm wide. The rings are mounted singly on in each case a pair of triangular hooks open at the end and made of 0.3 mm-thick special wire (Remanium®). Each ring is placed under an initial tension in 5 ml organ baths with Krebs-Henseleit solution which is at 37° C., is gassed with 95% O2/5% CO2 and has the following composition: NaCl 119 mM; KCl 4.8 mM; CaCl2×2H2O 1 mM; MgSO4×7H2O 1.4 mM; KH2PO4 1.2 mM; NaHCO3 25 mM; glucose 10 mM; bovine serum albumin 0.001%. The force of contraction is detected with Statham UC2 cells, amplified and digitized via A/D converters (DAS-1802 HC, Keithley Instruments, Munich) and recorded in parallel on chart recorders. Contractions are induced by addition of phenylephrine.
After several (generally 4) control cycles, the substance to be investigated is added in each further run in increasing dosage, and the height of the contraction achieved under the influence of the test substance is compared with the height of the contraction reached in the last preceding run. The concentration necessary to reduce the contraction reached in the preceding control by 50% is calculated from this (IC50). The standard application volume is 5 μl. The proportion of DMSO in the bath solution corresponds to 0.1%.
For the compound `CC(C)(C)c1ccc(COc2ccccc2/C=C/C(CCc2ccc(-c3nnn[nH]3)cc2)Cc2ccc(C(=O)O)cc2)c(Cl)c1` (single isomer, unassigned) [Example 3, 4-((3E)-4-{2-[(4-tert-Butyl-2-chlorobenzyl)oxy]phenyl}-2-{2-[4-(1H-tetrazol-5-yl)phenyl]ethyl}but-3-en-1-yl)benzoic acid], it took 682 nM to reach half-maximal inhibition (IC50). `O=C(O)c1ccc(CCC(/C=C/c2ccccc2OCCCCCc2ccccc2)Cc2ccc(-c3nnn[nH]3)cc2)cc1` (single isomer, unassigned) [Example 14, 4-{(4E)-5-{2-[(5-Phenylpentyl)oxy]phenyl}-3-[4-(1H-tetrazol-5-yl)benzyl]pent-4-en-1-yl}benzoic acid] had an IC50 of 1320 nM. Still for that read-out and setting: then `CC(C)(C)c1ccc(COc2ccccc2/C=C/C(CCCCC(=O)O)CCc2ccc(-c3nnn[nH]3)cc2)cc1` (single isomer, unassigned) [Example 29, (7E)-8-{2-[(4-tert-Butylbenzyl)oxy]phenyl}-6-{2-[4-(1H-tetrazol-5-yl)phenyl]ethyl}oct-7-enoic acid], with 1990 nM; and `CC(C)(C)c1ccc(COc2ccccc2/C=C/C(CCCCC(=O)O)Cc2ccc(-c3nnn[nH]3)cc2)cc1` (single isomer, unassigned) [Example 36, (7E)-8-{2-[(4-tert-Butylbenzyl)oxy]phenyl}-6-[4-(1H-tetrazol-5-yl)benzyl]oct-7-enoic acid], with 760 nM; and `COc1ccc(CCc2ccc(F)cc2/C=C\C(CCc2ccc(C(=O)O)cc2)Cc2ccc(-c3nnn[nH]3)cc2)cc1` (centres unmarked) [Example 17, 4-{(4Z)-5-{5-Fluoro-2-[2-(4-methoxyphenyl)ethyl]phenyl}-3-[4-(1H-tetrazol-5-yl)benzyl]pent-4-en-1-yl}benzoic acid], with 5800 nM. On the same count and under the same terms, then `COc1ccc(CCc2ccc(F)cc2/C=C/C(CCc2ccc(C(=O)O)cc2)Cc2ccc(-c3nnn[nH]3)cc2)cc1` (centres unmarked) [Example 18, 4-{(4E)-5-{5-Fluoro-2-[2-(4-methoxyphenyl)ethyl]phenyl}-3-[4-(1H-tetrazol-5-yl)benzyl]pent-4-en-1-yl}benzoic acid], with 890 nM.

Compound `O=C(O)c1ccc(CCC(/C=C/c2ccccc2OCc2ccc(-c3ccc(C(F)(F)F)cc3)cc2)Cc2ccc(-c3nnn[nH]3)cc2)cc1` (centres unmarked) [Example 21, 4-[(4E)-3-[4-(1H-Tetrazol-5-yl)benzyl]-5-(2-{[4′-(trifluoromethyl)biphenyl-4-yl]-methoxy}phenyl)pent-4-en-1-yl]benzoic acid] yielded a half-inhibitory concentration (IC50) of 372 nM.

For the compound `O=C(O)c1ccc(CCC(/C=C/c2ccccc2OCc2ccc(OC(F)(F)F)cc2)CCCCc2nnn[nH]2)cc1` (centres unmarked) [Example 38], the concentration for half-maximal inhibition (IC50) turned out to be 567 nM. Still for that read-out and setting: then `O=C(O)c1ccc(CCC(/C=C/c2ccccc2OCc2cc(C(F)(F)F)cc(C(F)(F)F)c2)CCCCc2nnn[nH]2)cc1` (centres unmarked) [Example 39], with 150 nM.

The same experiment, now with this note: rabbit saphenous artery rings, contraction induced by phenylephrine.
Compound `CC(C)(C)c1ccc(COc2ccccc2/C=C/C(CCc2ccc(-c3nnn[nH]3)cc2)Cc2ccc(C(=O)O)cc2)cc1` (single isomer, unassigned) [Example 5, 4-((3E)-4-{2-[(4-tert-Butylbenzyl)oxy]phenyl}-2-{2-[4-(1H-tetrazol-5-yl)phenyl]ethyl}but-3-en-1-yl)benzoic acid] yielded a 50% inhibitory concentration (IC50) of 2510 nM.

Compound `CC(C)(C)c1ccc(COc2ccccc2/C=C/C(CCc2ccc(C(=O)O)cc2)Cc2ccc(-c3nnn[nH]3)cc2)cc1` (single isomer, unassigned) [Example 23, 4-{(4E)-5-{2-[(4-tert-Butylbenzyl)oxy]phenyl}-3-[4-(1H-tetrazol-5-yl)benzyl]pent-4-en-1-yl}benzoic acid] yielded an IC50 of 3890 nM. For `CC(C)(C)c1ccc(COc2ccccc2/C=C/C(CCc2ccc(C(=O)O)cc2)Cc2ccc(-c3nnn[nH]3)cc2)cc1` (single isomer, unassigned) [Example 24, 4-{(4E)-5-{2-[(4-tert-Butylbenzyl)oxy]phenyl}-3-[4-(1H-tetrazol-5-yl)benzyl]pent-4-en-1-yl}benzoic acid], the IC50 came out at 102 nM. For the compound `CC(C)(C)c1ccc(COc2ccccc2/C=C/C(CCCCc2nnn[nH]2)CCc2ccc(C(=O)O)cc2)cc1` (single isomer, unassigned) [Example 26, 4-[3-((E)-2-{2-[(4-tert-Butylbenzyl)oxy]phenyl}vinyl)-7-(1H-tetrazol-5-yl)heptyl]benzoic acid], it took 559 nM to reach half-maximal inhibition (IC50). As for `CC(C)(C)c1ccc(COc2ccccc2/C=C/C(CCCCc2nnn[nH]2)CCc2ccc(C(=O)O)cc2)cc1` (single isomer, unassigned) [Example 27, 4-[3-((E)-2-f{2-[(4-tert-Butylbenzyl)oxy]phenyl}vinyl)-7-(1H-tetrazol-5-yl)heptyl]benzoic acid], the IC50 turned out to be 9.7 nM.

The target of another experiment is T1, Heme-containing sGC (recombinant soluble guanylate cyclase) (Rattus norvegicus, UniProt P20595).
T1 construct: made in house
T1 sequence (P20595 1-619): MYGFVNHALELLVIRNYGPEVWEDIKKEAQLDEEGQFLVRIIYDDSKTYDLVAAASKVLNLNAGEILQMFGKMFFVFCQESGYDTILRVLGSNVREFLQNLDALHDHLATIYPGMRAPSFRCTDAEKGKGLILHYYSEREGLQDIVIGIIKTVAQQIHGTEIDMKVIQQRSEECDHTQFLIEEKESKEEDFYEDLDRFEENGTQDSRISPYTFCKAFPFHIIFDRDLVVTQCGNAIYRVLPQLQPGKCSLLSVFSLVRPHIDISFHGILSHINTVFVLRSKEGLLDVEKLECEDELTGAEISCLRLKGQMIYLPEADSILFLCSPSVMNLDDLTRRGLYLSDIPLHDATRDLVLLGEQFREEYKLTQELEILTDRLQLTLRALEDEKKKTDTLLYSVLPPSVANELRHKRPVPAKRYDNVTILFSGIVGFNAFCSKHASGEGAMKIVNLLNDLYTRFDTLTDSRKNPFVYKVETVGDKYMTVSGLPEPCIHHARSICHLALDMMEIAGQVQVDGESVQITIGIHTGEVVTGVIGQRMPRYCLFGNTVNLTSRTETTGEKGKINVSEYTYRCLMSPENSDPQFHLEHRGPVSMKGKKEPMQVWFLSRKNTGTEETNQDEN
T1 sequence (P19686 1-690 partner): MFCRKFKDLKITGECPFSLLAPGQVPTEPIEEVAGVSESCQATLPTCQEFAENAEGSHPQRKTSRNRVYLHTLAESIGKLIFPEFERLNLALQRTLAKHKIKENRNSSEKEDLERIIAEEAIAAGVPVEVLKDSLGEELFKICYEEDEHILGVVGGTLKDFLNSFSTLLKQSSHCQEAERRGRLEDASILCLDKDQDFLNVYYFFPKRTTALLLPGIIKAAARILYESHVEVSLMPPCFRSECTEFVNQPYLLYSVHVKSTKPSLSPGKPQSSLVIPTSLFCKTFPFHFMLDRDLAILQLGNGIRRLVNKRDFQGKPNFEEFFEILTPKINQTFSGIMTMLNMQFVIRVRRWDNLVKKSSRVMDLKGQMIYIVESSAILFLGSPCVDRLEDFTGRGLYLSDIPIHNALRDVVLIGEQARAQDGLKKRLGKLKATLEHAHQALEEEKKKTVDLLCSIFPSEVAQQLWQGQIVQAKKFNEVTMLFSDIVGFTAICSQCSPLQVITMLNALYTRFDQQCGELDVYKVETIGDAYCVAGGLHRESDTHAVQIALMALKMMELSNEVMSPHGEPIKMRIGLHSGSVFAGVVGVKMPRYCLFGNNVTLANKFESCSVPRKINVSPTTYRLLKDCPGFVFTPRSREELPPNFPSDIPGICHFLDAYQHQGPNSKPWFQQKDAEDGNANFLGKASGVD
The experiment is described as follows: Stimulation of recombinant soluble guanylate cyclase (sGC) in vitro, heme-containing enzyme. Format: biochemical. The settings on record: 0.1 μM DEA/NO, 0.0 μM Example 6. From the text:
Hoenicka, E. M. Becker, H. Apeler, T. Sirichoke, H. Schroeder, R. Gerzer and J.-P. Stasch, “Purified soluble guanylyl cyclase expressed in a baculovirus/Sf9 system: Stimulation by YC-1, nitric oxide, and carbon oxide”, J. Mol. Med. 77 (1999), 14-23. The heme-free guanylate cyclase is obtained by adding Tween 20 to the sample buffer (0.5% in the final concentration).
(§1) The activation of sGC by a test substance is reported as n-fold stimulation of the basal activity.
As for `CCN(CC)[N+]([O-])=NO` [DEA/NO, 2-(N,N-diethylamino)diazenolate 2-oxide, reference compound], the “Stimulation (n-fold) Heme-containing sGC by DEA/NO alone” value is 64.1 n-fold.

The experiment is the same for the next values; noted with them: 10 μM ODQ, 0.0 μM Example 6.
On to `O=c1onc2cnc3ccccc3n12` [ODQ, 1H-1,2,4-oxadiazole-(4,3a)-quinoxalin-1-one, reference compound], for which the “Stimulation (n-fold) Heme-containing sGC with ODQ alone” value is on record as 2.4 n-fold.

The target of another experiment is T2, Heme-free sGC (recombinant soluble guanylate cyclase) (Rattus norvegicus, UniProt P20595).
T2 construct: made in house
T2 sequence (P20595 1-619): T1 sequence (P20595 1-619)
T2 sequence (P19686 1-690 partner): T1 sequence (P19686 1-690 partner)
The experiment is described as follows: Stimulation of recombinant soluble guanylate cyclase (sGC) in vitro, heme-free enzyme. Format: biochemical. The settings on record: 10 μM ODQ, 0.0 μM Example 6. The procedure:
Investigations on the stimulation of recombinant soluble guanylate cyclase (sGC) by the compounds according to the invention with and without sodium nitroprusside, and with and without the heme-dependent sGC inhibitor 1H-1,2,4-oxadiazole-(4,3a)-quinoxalin-1-one (ODQ) are carried out by the method described in detail in the following reference: M. Hoenicka, E. M. Becker, H. Apeler, T. Sirichoke, H. Schroeder, R. Gerzer and J.-P. Stasch, “Purified soluble guanylyl cyclase expressed in a baculovirus/Sf9 system: Stimulation by YC-1, nitric oxide, and […]”, J. Mol. Med. 77 (1999), 14-23. The heme-free guanylate cyclase is obtained by adding Tween 20 to the sample buffer (0.5% in the final concentration).
as §1
On to `O=c1onc2cnc3ccccc3n12` [ODQ, 1H-1,2,4-oxadiazole-(4,3a)-quinoxalin-1-one, reference compound], for which the “Stimulation (n-fold) Heme-free sGC with ODQ alone” value is recorded as 1.2 n-fold.
